The test system of one assay is naïve rats. The experiment in a line: Thermal paw withdrawal latency in naïve rats. Format: in vivo, rat. As to the method:
To determine sensitivity to noxious heat, rats were placed in plexiglass enclosures on a transparent glass surface maintained at 30° C. and allowed to acclimate for 30 min. A thermal testing apparatus, consisting of a heat-emitting projector lamp and an electronic timer, was used. The device was activated after the lamp is placed directly beneath the planter surface of the hindpaw. The paw withdrawal latency in response to the radiant heat was recorded by a digital timer. A cutoff of 30 s was used to prevent potential tissue damage. After the baseline was measured, three groups of naïve rats (n=10) received 1.0, 3.0, or 10 mg/kg of the compound of Example 3 i.p. Response latencies were determined twice for each rat before drug injection and at 5, 10, 15, 30, 45, 60, 90 and 120 min after IP injection. The percent maximal possible effect (% MPE) was calculated as ([postdrug latency−baseline latency]/[cutoff time (30 s)−baseline latency])×100.

The next assay concerns the target rCB2 receptors (Rattus norvegicus (Rat), UniProt Q9QZN9). The experiment in a line: cAMP activation assay rCB2. The settings on record: read-out: Agonist EC50 (mean ± s.e. mean) cAMP activation assays rCB2. It counts as cell-based. How it is done:
The compound of Example 3 was tested for agonist activity at the rat CB1 (rCB1) and rCB2 receptors, at eight concentrations, in duplicate: 10, 3, 1, 0.3, 0.1, 0.03, 0.01 and 0.001 μM. Recombinant cells grown to mid-log phase in culture media without antibiotics were detached with PBS containing 5 mM EDTA, centrifuged and resuspended in assay buffer at a concentration of 16.6×10^5 cells/ml. The test was performed in 96 well plates. For testing, 12 μl of cells ([…]) were mixed with 12 μl of agonist at increasing concentrations. […] The plates were then incubated for 30 min at room temperature. After addition of the lysis buffer, cAMP concentrations were estimated, according to the manufacturer specification, with the HTRF kit from Cis-Bio International (Catalogue number 62AM2PEB).

Assay [1] concerns the target T1, CB1 (Homo sapiens (Human), UniProt P21554). Description: CB1 Binding Assay ([3H]CP 55940, cell membrane homogenates). As to the method: After being incubated, the samples were filtered rapidly under vacuum through glass fiber filters (GF/B; Packard) presoaked with 0.3% PEI and rinsed several times with ice-cold buffer containing 50 mM Tris HCl (pH 7.4) and 0.5% BSA using a 96-sample cell harvester (Unifilter; Packard). The filters were dried then counted for radioactivity in a scintillation counter (Topcount; Packard) using a scintillation cocktail (Microscint 0; Packard). The results were expressed as a percentage of the inhibition of the control radioligand-specific binding. The reference standard compounds were tested in each experiment at several concentrations to obtain a competition curve from which its IC50 was calculated.

The target in assay [2] is T1, CB1. The experiment in a line: CB1/CB2 Functional Assay (GTPγ[35S]), CB1 membranes. Format: biochemical. How it is done: A dose response curve was generated at eight concentrations in duplicate on CB1 and CB2 in light of reference agonists. The reference agonists for cannabinoid receptors was CP55,940. See FIGS. 1A, 1B, 2A, 2B, 3A and 3B.
Membranes (CB1, ES-110-MG or CB2, ES-111-MG) were mixed with GDP (volume:volume) and incubated for at least 15 min on ice. In parallel, GTPγ[^35S] were mixed with the beads (volume:volume) just before starting the reaction. The following reagents were successively added in the wells of an Optiplate: 50 μl of ligand, 20 μl of the membranes:GDP mix, 10 μl of assay buffer for agonist testing and 20 μl of the GTPγ[^35S]: beads mix. The plates were covered with a topseal, shaken on an orbital shaker for 2 min, and then incubated between 30 to 60 min. at room temperature. Then the plates were centrifuged for 10 min at 2000 rpm, incubated at room temperature between 1 to 4 hours and counted for 1 min with a PerkinElmer TopCount reader.

The mark [3] stands for this setting: CB1, test concentration 1.0E−05 (MD).

T1 sequence (P21554 whole entry): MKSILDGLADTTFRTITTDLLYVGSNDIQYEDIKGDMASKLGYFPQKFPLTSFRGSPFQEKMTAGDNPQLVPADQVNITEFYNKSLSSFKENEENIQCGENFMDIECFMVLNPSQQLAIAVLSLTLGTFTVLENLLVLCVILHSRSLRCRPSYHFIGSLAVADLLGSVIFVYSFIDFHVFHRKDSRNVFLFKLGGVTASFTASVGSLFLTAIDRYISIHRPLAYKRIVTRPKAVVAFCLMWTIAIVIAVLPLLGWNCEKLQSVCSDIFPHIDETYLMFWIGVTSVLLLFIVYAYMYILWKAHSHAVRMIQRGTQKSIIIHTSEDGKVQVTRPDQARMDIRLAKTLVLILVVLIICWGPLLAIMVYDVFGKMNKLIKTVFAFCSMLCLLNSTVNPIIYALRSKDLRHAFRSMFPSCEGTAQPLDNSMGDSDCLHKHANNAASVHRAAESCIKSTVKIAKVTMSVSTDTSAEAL

With `CC1(Cc2ccccc2)COc2cc(C(=O)N3CCCCC3)ccc21` (stereo not shown) [Example 3, 3-benzyl-3-methyl-2,3-dihydrobenzofuran-6-carboxylic acid-piperidine amide], the “nociceptive effect of a thermal stimulus applied to hind paws” value in the assay on naïve rats (1 mg/kg or 3 mg/kg i.p.) is reported as “did not block”. Moreover, in the assay on naïve rats (10 mg/kg i.p.), the “nociceptive effect of a thermal stimulus applied to hind paws” value is “short-lasting antinociceptive effect”. On rCB2 receptors, the EC50 – broadly, the concentration giving half of the maximal effect – was 21.7 ± 7.9 nM. For the same compound, on CB1 [1] (setting [3]), the “% Inhibition of Control Specific Binding” value was 71% and the “% of Control Specific Binding Mean” value is listed as 29%. For the same compound, the “% of Control Specific Binding 1st” value on CB1 [1] (CB1, test concentration 1.0E−05 (MD), first replicate) is listed as 22%. For the same compound, on CB1 [1] (CB1, test concentration 1.0E−05 (MD), second replicate), the “% of Control Specific Binding 2nd” value worked out at 36%. The “% Inhibition of Control Specific Binding CB1” value on CB1 [1] (as repeated in Table 3) is listed as 71%. Besides, the “Compound Function” value at CB1 [2] is on record as “Agonist”. The “% Activation Average” value at CB1 [2] (reference agonist CP55,940) is 22.85%.
